Read-outs that look alike come from different tables or passages of the source.
Tests used:
dog = assay: Protocol M simile: high or repetitive infusions in single dogs; format: in vivo
Experimental: It is noted that the dP/dt increased by 350% after the eighth dose and dF/dt by 450%.
In one dog using protocol M simile, 240 mg/Kg of berberine HCI was administered and dP/dt increased by 75%, aortic flow by 67%, heart rate fell from 150 to 114 beats/min., diastolic aortic pressure fell from 92 to 67 mmHg, and left atrial pressure fell from 8.5 to 7.5 mmHg.
When this type of experiment was repeated with tetrahydropalmatine, a first dose of 3.5 mg/Kg was given without maintaining the pressure constant and arterial pressure fell from 142/115 to 118/90 mmHg. When the second infusion was given with constant pressure, dP/dt increased by 17%.

Mongrel dogs [1] = assay: Protocol Z: continuous 35 minute infusion in anesthetized open-chest dogs, constant left ventricular pressure; format: in vivo
Experimental: Mongrel dogs weighing between 15 and 25 kg were anesthetized with intravenous sodium thiamylal (20 mg/kg initially with additional doses given as needed). The dogs were intubated endotracheally, and respiration was maintained by a Harvard respirator. The chest was then opened in the fourth left intercostal space and the heart suspended temporarily in a pericardial cradle.
Aortic pressures were recorded through a polyethylene cannula introduced through the carotid artery (Statham P23 Db pressure transducer) and electrocardiogram (lead aVF) were recorded throughout the experiment on a polygraph (Gould Instruments). Another polyethylene cannula was placed in the left atrium for measurement of atrial pressure (Statham P23 Db pressure transducer). An electromagnetic flowmeter (Biotonix Laboratories) was placed around the ascending aorta and the aortic flow was recorded on a polygraph. Two catheters were inserted into the left ventricle through a femoral artery.
The first ("pigtail") served as a reference, while the second (Millar microtip transducer catheter) was connected through a Millar transducer (Millar Instruments, Houston, Texas) to the polygraph, where both left ventricular pressure curves were recorded simultaneously. The left ventricular end diastolic pressure was recorded separately through a Millar catheter. The first derivative of the left ventricular pressure (dP/dt) was obtained by electronic differentiation of the left ventricular pulse recorded through the Millar catheter.
A reservoir of blood was connected with the femoral artery in order to maintain constant left ventricular pressure during the experiment. In this protocol, similarly to protocol M, systemic arterial pressure was maintained constant in order to have accurate measurements of dP/dt which represent well left ventricular contractility when the systolic pressure is maintained constant. However, calculated total peripheral resistance will be higher (an underestimation of the fall). After stabilization of hemodynamics as reflected by continuously monitored parameters for 15 minutes, the substances to be studied were infused intravenously using a Harvard infusion pump. Registrations were made every 5 minutes at a paper speed of 200 mm/second, while all the parameters were recorded constantly at a speed of 2 mm/second. The dogs were randomly assigned to several groups: • Group a) Control - in these dogs a solution of 5% dextrose in water was infused in the same quantity as in the berberine treated animals (n = 7).
In all berberine, berberrubine coreximine and tetrahydropalmatine groiups the compounds were infused at constant rate for 35 minutes and the data analyzed at 5 minute intervals. • Group b) Berberine 0.7 mg/Kg/min (n = 10). • Group c) Berberine 0.2 mg/Kg/min (n = 7). • Group d) Berberine 0.02 mg/Kg/min (n = 7). • Group e) Berberrubine 0.2 mg/Kg/min (n = 7). • Group f) Tetrahydropalmatine 0.2 mg/Kg/min (n = 4). • Group g) Coreximine 0.2 mg/Kg/min (n = 8).
Therefore, group b, c and d were used to analyze the various effects of continuous infusion of berberine and its dose response and groups e and f and g used to examine the effects of these three other proberberines. Moreover, their effects were compared to the berberine treated dogs with the same dose (i.e. Group c).

in vivo = assay: in vivo; set-up: species or system rats; settings: rat
Experimental: Preferential concentration of berberine in the heart rather than in other thoracic organs or the liver is a sine qua non for a good imaging agent. Berberine level measurements were done spectrophotometrically. The experiment consisted of injecting 3.5 mg/Kg of berberine ([…]) intravenously and killing the rats after 15 minutes, 90 minutes, 6 hours, 24 hours, 48 hours and 1 week. Each group consisted of 5-6 rats. A control group (no berberine administration) was used to determine the absorbance of the different organs at that wave length. […] It was released rapidly from the heart thus showing no significant tendency to accumulate in that organ. Its concentrate was 1, 1 and 3 pg/g in the lungs and 0.2 and 0 in the skeletal muscles or in the blood at the same time intervals.

[2] = test system: anesthetized closed chest dogs; assay: Association of ouabain and berberine on contractility (LV dP/dt), constant systolic pressure; format: in vivo; settings: ouabain 0.03 mg/Kg i.v. bolus
Experimental: In anesthetized closed chest dogs the systolic arterial pressure was maintained constant with a reservoir full of heparinized blood (as in protocol "M" and "Z" described above) and a "pigtail" and Millar catheter were introduced into the left ventricular cavity (as in protocol "Z" and "HV", described above). All data was recorded on 8 channel polygraph (Gould Instruments) with a paper speed of 200 mm/s when necessary and at 2 mm/s constantly.

[3] = test system: healthy adult mongrel dogs; assay: Protocol M: hemodynamics in anesthetized open-chest dogs, systolic arterial pressure held constant; format: in vivo
[4] = test system: closed-chest anesthetized dogs; settings: for rise of diastolic pressure: only digitalis
Experimental: A study was carried out to examine the effects of the simultaneous administration of berberine on digitalis (i.e. ouabain) produced arrhythmias.
The experiments were conducted in closed-chest anesthetized dogs which were randomized to three groups. All received ouabain 0.03 mg/Kg as a bolus intravenously and thereafter a continuous infusion with a constant rate of 0.0006 mg/Kg/min until death. […] The second group received simultaneously berberine 1 mg/Kg intravenously as a bolus and then 0.2 mg/Kg/min as a continous infusion. The third group received berberine only after the appearance of VEA in a frequency of 50% of more of all systoles.
Moreover, the effects of intravenous bolus injection of berberine (0.4 to 1 mg/Kg) was studied (in comparison to dextrose 5% injection).

Mongrel dogs [5] = assay: Protocol HV: acute left ventricular failure by coronary microsphere embolization, closed chest; format: in vivo; settings: ouabain 0.03 mg/kg during 30 minutes
Experimental: - Experiments were carried out in 21 mongrel dogs of either sex with body weight between 19 and 39 kg. Anesthesia was induced with sodium pentobarbital, 25 mg/kg of body weight intravenously, and small supplementary doses were given as necessary to maintain a constant level of anesthesia. The dogs were placed in the left lateral position and ventilation was maintained through a cuffed endotracheal tube with a volume-controlled respirator (Harvard Apparatus Co., Millis, Massachusetts). Polyethylene cannuleae were placed into the jugular and femoral veins for intravenous infusions and drug adminstration. Electrocardiograms (lead aVF) were monitored continuously throughout the experiments.
A polyethylene cannula was introduced into the aorta through the left carotid artery to record arterial pressure. (Stantham P23 ID transducer, Stantham Instruments, Inc. Oxnard, California). A Millar microtip transducer catheter (Millar Instruments, Inc., Houston, Texas) was introduced into the left ventricular cavity through the femoral artery to measure left ventricular pressures. For adjustment of zero level, left ventricular pressure was also measured through the fluid-filled lumen in the Millar catheter (Statham P23 ID transducer). The maximal rate of rise of left ventricular pressure, LV dP/dt, was recorded by means of a differentiator. All these parameters were recorded continuously on a polygraph (Gould 2800, Gould Instruments, Cleveland, Ohio). Cardiac output was determined by the thermodilution technique, using a thermistor catheter in the pulmonary artery and calculated by a cardiac output computer (Elecath, Electro- catheter Corp., Rahway, New Jersey). The coefficient of variation for duplicate CO measurements was 5%. In addition to the parameters directly obtained, total peripheral vascular resistance was calculated from the ratio of […] and cardiac output. Stroke volume was calculated by dividing cardiac output by heart rate. Heparin (Invendex) (5000 IU) was administered to avoid clotting of the catheters.
To induce acute left vetricular failure, initially the left main coronary artery was catheterized with a Judkin coronary artery catheter (7F, ISCI Cardiology and Radiology Products, Billerica, Massachusetts) under fluoroscopic control. It was introduced through a femoral artery, and polystyrene microspheres (3M Company, St. Paul, Minnesota) with a diameter of 52. 5 ± 4.0 µm (mean±SD) were injected into the coronary artery. The microspheres were used in a concentration of 1 mg (i.e., 12,000) per ml saline. The first dose of microsphere solution was 0.5 mi/kg body weight, and all subsequent doses were 0.25 ml/kg body weight, administered every 5 minutes. Administration of microspheres was discontinued when LV/dP/dt had been reduced by 30% or more when measured 4 minutes after the last dose. All dogs received prophylactic antiarrhythmic treatment with intravenous lidocaine, 1.5 mg/kg body weight as a bolus 20 min after the end of embolization, followed by a continuous infusion of […].
Forty-five minutes were allowed to elapse to verify the stability of the preparation. If Lv dP/dt or left ventricular end diastolic pressure had changed by 20% or more between 30 and 45 minutes after embolization, the dogs were excluded from this study and not randomized. Forty-five minutes after the end of embolization, the dogs were assigned randomly to three groups: a) Berberine-treated group, 0.2 mg/kg/ min, dissolved in 60 ml of a solution of 5% dextrose in water administered in a constant infusion during 30 minutes; b) ouabain-treated group, 0.03 mg/kg was administered in 60 ml of a 5% solution of dextrose in water during 30 minutes; and c) Control group, administration of 60 ml of a 5% solution of dextrose in water during 30 min. […]

dogs = assay: Myocardial oxygen consumption (MV02) and epicardial ST segment elevation experiments; format: in vivo
Source text: These changes were due to lower. myocardial oxygen consumption during the occlusion with berberine treatment. […] This is quite an advanageous therapeutic combination of properties which further distinguish the compounds used in the invention from the conventional drugs.

COc1cc2c(cc1OC)[C@@H]1Cc3ccc(OC)c(OC)c3CN1CC2 [tetrahydropalmatine]
arterial pressure (dog; first dose 3.5 mg/Kg, pressure not held constant, from 142/115): 118/90
increase of dP/dt (dog; second infusion, constant pressure): 17%
reduction of calculated peripheral resistance (Mongrel dogs [1]; 0.2 mg/Kg/min): over 30%
fall of heart rate (HR) (Mongrel dogs [1]; 0.2 mg/Kg/min (Table XIII)): 5.5%

COc1ccc2cc3[n+](cc2c1OC)CCc1cc2c(cc1-3)OCO2 [berberine (S04), berberine]
concentrate in the liver (in vivo; 15 min): 0 1l9/g
concentrate in the liver (in vivo; 90 min): 6 1l9/g
concentrate in the liver (in vivo; 6 h): 2 1l9/g
concentration at 15 min (in vivo; concentrate in the lungs): 0.001 ng/g
concentration at 90 min (in vivo; concentrate in the lungs): 0.001 ng/g
concentration at 6 h (in vivo; concentrate in the lungs): 0.003 ng/g

C[C@@H]1O[C@@H](O[C@H]2C[C@@H](O)[C@]3(CO)[C@H]4[C@H](O)C[C@]5(C)[C@@H](C6=CC(=O)OC6)CC[C@]5(O)[C@@H]4CC[C@]3(O)C2)[C@H](O)[C@H](O)[C@H]1O [ouabain, reference compound]
increase in dP/dt, of the initial value of peak LV dP/dt ([2]; 5 minutes): 17±2%
increase in dP/dt, of the initial value of peak LV dP/dt ([2]; 10 minutes): 24±3%
increase in dP/dt, of the initial value of peak LV dP/dt ([2]; 15 minutes): 34±4%
increase in dP/dt, of the initial value of peak LV dP/dt ([2]; 20 minutes): 36±4%
increase in dP/dt, of the initial value of peak LV dP/dt ([2]; 25 minutes): 44±6%
increase in dP/dt, of the initial value of peak LV dP/dt ([2]; 30 minutes): 49±7%
flow in the descending aorta ([3]; after ouabain 0.03 mg/Kg i.v. bolus, from 1195 ± 89): 1018 ± 93 mL/min
diastolic aortic pressure ([3]; ouabain 0.03 mg/Kg i.v. bolus): did not change significantly
increase of calculated peripheral resistance ([3]; ouabain 0.03 mg/Kg i.v. bolus): 18%
decrease of flow in the descending aorta ([3]; ouabain 0.03 mg/Kg i.v. bolus, 11 dogs, after the 90 minute experiments): 15%
dose of ouabain to provoke VT ([4]; control situation, ouabain alone): 0.04 mg/kg
amount of ouabain that provoked VT ([4]; controls, ouabain alone): 0.048 mg/kg
hemodynamic parameters from before to 30 minutes after the start of drug administration (Mongrel dogs [5]): did not change any of the hemodynamic parameters

CC(C)NCC(O)c1ccc(O)c(O)c1 (centres unmarked) [isoproterenol, reference compound]
epicardial ST segment elevations (dogs; after coronary artery occlusion): increased
mycardial oxygen consumption (MV02) (dogs; non-failing heart, dose that increases LV dP/dt similarly): significantly augmented

digitalis [reference compound]
rise of diastolic pressure ([4]; 10 minutes): 31±9%
rise of diastolic pressure ([4]; 20 minutes): 16±11%
rise of diastolic pressure ([4]; 30 minutes): 34±15%
rise of diastolic pressure ([4]; 60 minutes): 16±7%
